# Test results as given in patent US20070179113A1, “GM-CSF gene therapy for Crohn's disease using an improved regulated expression system” (Schering Aktiengesellachaft, priority 2005, published 2007).
# Tested on: EAE in SJL mice
# Test: Murine active EAE model, mIFN-β protein and pBRES mIFN-β plasmid with MFP pellet
# Format: in vivo
# Conditions: 25 days
# Procedure: FIG. 39A illustrates the effect of treatment of mice with induced EAE neuroinflammation with mIFN-β protein by SC injection every other day for 25 days. SJL mice were immunized on day 1 with proteolipid peptide (PLP) amino acids 139-151/pertussis according to the protocol described in Material and Methods. Groups of mice (n=10 per group) were injected SC on day 1 with mIFN-β protein, 100,000 units (500 ng) or 300,000 units (1500 ng), or vehicle. Animals were scored for EAE disease progression and the average clinical scores are provided with the standard error of the mean score (SEM).
# FIG. 39B illustrates the delay in the onset of disease and decrease in the severity of disease following administration of pBRES mIFN-β as compared to the null vector control group. SJL mice were immunized on day I with PLP 139-151/pertussis according to the protocol described. Groups of mice (n=10 per group) were injected IM on day-7 with 200 ug of either pBRES null plasmid DNA or pBRES mIFN-β plasmid DNA with electroporation. One group of mice were treated daily with Prednisolone by IP injection and served as the positive control for the study. Plasmid treated mice were administered one mifepristone (MFP) containing slow release pellets by SC injection on day-3. Animals were scored for EAE disease progression and the average clinical scores are provided with the standard error of the mean score (SEM). […]
substance,measurement,setting,value
mIFN-β: purified recombinant murine interferon-beta protein expressed in 293E cells,severity of disease (clinical scores) compared to vehicle,"100,000 units SC every other day",significantly reduced the severity of the disease
same,severity of disease (clinical scores) compared to vehicle,"300,000 units SC every other day",significantly reduced the severity of the disease
